The target of the experiment is T1, p101/p110γ protein (PI3Kγ) (Homo sapiens, UniProt P48736).
T1 construct: HA; made in house; host or cells: Spodoptera frugiperda (Sf9) cells, baculovirus coinfection
Description: PI3Kγ In Vitro Kinase Assay. The class given is biochemical. Particulars: purified recombinant p101/p110γ with G protein β1/γ2 subunits; 20 μM ATP, 25 μM PIP2; 20 minutes at room temperature; radioactive PIP3 readout. How it is done:
Spodtera frugiperda cells, grown in ESF921 media, were coinfected with baculovirus expressing a glu-tagged […] and baculovirus expressing an HA-tagged p110γ, at a 3:1 ratio of p110 baculovirus to p110γ baculovirus. Sf9 cells were grown to 1×10^7 total cells/mL in 10L bioreactors and harvested 48-72 hours post infection. Samples of infected cells were then tested for expression of p101/p110γ PI3 kinase by immunoprecipitation and Western Blot analysis methods (see below).
To purify PI3Kγ, 4 volumes of room temperature hypotonic lysis buffer (1 mM MgCl2, 1 mM DTT, 5 mM EGTA, 1 mM Pefabloc, 0.5 μM aprotinin, […], 2 μM pepstatin, 5 μM E64, pH 8) per gram of cell paste, was poured onto frozen cell pellets with stirring, then lysed in a nitrogen “bomb” at 400 psi (599HC T316, Parr Instrument Co, Moline, Ill.). NaCl was added to 150 mM, and sodium cholate was added to 1% and mixed for another 45 minutes. The lysates were clarified by centrifugation for 25 minutes at 14,000 rpm. The lysates were then loaded over anti-glu-linked Protein-G Sepaharose beads (Covance Research Products, Richmond, Calif.) using 20 mL resin/50 g cell paste. The column was washed with 15 volumes of wash buffer (1 mM DTT, 0.2 mM EGTA, 1 mM Pefabloc, 0.5 μM aprotinin, 5 μM leupeptin, 2 μM pepstatin, 5 μM E64, 150 mM NaCl, 1% sodium cholate, pH 8). PI3Kγ was eluted with 6 column volumes of wash buffer that contain 100 μg/mL of a peptide that competes for binding of the glu tag. The column fractions with the eluted protein (determined by taking OD280 readings) were collected and dialyzed in 0.2 mM EGTA, 1 mM DTT, 1 mM Pefabloc, 5 μM leupeptin, 0.5% sodium cholate, 150 mM NaCl, and 50% glycerol, pH 8. The fractions were stored at −80° C. until further use.
Spodtera frugiperda cells were coinfected with baculovirus expressing a glu-tagged G protein β1 and baculovirus expressing a […] at a 1:1 ratio of glu-tagged G protein β1 baculovirus to G protein β2 baculovirus. Sf9 cells are grown in 10 L bioreactors and harvested 48-72 hours post infection. Samples of infected cells were tested for G protein β1/β2 expression by Western Blot analysis, as described below. Cell lysates were homogenized and loaded onto a column of glu-tagged beads as in Biological Example 1 and competed off the column with a glu peptide as described in Biological Example 1.
The inhibitory properties of the compounds in Table 1 were assayed in an in vitro PI3K assay. In a 96-well polypropylene plate, each well was spotted with 2 μL of 50 times the desired final concentration of compound in DMSO. Purified recombinant p101/p110γ protein (0.03 μg; ˜2.7 nM) and G protein β1/γ2 subunits (0.09 μg; −57.7 nM) for each reaction was combined in the assay buffer (30 mM HEPES, 100 mM NaCl, 1 mM EGTA, and 1 mM DTT). ATP and [γ-^32P-ATP] (0.09 μCi) were added to this mixture so that the final ATP concentration in the reaction was 20 μM. Lipid micelles were formed by sonicating phosphatidylinositol-4,5-diphosphate (PIP2), phosphatidylethanolamine (PE), and Na-cholate in the assay buffer for 10 minutes, adding MgCL2 and incubating on ice for 20 minutes, for final concentrations of 25 μM PIP2, 300 μM PE, 0.02% Na-cholate, and 10 mM MgCl2 in the reaction. The reactions were started by adding equal volumes lipid and enzyme mixture in a total volume of 50 μL, allowed to run for 20 minutes at room temperature, and stopped with 100 μL 75 mM H3PO4. The lipid product was transferred to a glass fiber filter plate and washed with 75 mM H3PO4 several times. The presence of radioactive lipid product (PIP3) was measured by adding Wallac Optiphase mix to each well and counting in a Wallac 1450 Trilux plate reader (PerkinElmer Life Sciences Inc., Boston, Mass. 02118). The IC50 for each compound tested is reported in μM in Table 1: […]

What is called IC50 is the point on the concentration scale where inhibition reaches its midpoint.

T1 sequence (P48736 whole entry, species assumed): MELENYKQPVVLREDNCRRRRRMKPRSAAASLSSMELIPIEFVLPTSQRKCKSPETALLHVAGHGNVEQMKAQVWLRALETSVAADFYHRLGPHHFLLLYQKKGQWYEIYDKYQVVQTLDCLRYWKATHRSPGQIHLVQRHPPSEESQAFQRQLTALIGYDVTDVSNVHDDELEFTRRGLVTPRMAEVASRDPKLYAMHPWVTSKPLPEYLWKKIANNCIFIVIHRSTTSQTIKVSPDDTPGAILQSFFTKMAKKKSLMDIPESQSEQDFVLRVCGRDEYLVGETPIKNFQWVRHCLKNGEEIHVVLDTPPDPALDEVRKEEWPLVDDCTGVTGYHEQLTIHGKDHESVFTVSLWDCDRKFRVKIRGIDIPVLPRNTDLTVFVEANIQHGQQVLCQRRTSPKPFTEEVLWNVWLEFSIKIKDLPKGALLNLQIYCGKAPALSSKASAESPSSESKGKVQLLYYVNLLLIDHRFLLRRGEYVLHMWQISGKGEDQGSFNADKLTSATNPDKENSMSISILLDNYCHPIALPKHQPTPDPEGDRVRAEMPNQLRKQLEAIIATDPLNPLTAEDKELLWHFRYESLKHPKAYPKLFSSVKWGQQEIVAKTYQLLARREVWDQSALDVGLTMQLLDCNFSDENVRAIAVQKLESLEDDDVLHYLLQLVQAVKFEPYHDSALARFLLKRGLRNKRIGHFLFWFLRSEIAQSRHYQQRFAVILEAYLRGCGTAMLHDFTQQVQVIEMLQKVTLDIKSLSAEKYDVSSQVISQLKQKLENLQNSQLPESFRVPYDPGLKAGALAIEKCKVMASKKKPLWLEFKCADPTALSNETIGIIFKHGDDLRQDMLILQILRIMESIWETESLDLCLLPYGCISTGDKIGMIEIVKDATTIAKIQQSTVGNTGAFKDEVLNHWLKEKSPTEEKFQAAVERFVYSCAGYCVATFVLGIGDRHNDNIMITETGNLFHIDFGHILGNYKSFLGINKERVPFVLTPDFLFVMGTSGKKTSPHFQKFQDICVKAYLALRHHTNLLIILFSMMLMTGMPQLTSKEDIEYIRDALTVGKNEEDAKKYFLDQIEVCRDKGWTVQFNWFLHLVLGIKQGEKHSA
T1 sequence (Q8WYR1 whole entry partner, species assumed): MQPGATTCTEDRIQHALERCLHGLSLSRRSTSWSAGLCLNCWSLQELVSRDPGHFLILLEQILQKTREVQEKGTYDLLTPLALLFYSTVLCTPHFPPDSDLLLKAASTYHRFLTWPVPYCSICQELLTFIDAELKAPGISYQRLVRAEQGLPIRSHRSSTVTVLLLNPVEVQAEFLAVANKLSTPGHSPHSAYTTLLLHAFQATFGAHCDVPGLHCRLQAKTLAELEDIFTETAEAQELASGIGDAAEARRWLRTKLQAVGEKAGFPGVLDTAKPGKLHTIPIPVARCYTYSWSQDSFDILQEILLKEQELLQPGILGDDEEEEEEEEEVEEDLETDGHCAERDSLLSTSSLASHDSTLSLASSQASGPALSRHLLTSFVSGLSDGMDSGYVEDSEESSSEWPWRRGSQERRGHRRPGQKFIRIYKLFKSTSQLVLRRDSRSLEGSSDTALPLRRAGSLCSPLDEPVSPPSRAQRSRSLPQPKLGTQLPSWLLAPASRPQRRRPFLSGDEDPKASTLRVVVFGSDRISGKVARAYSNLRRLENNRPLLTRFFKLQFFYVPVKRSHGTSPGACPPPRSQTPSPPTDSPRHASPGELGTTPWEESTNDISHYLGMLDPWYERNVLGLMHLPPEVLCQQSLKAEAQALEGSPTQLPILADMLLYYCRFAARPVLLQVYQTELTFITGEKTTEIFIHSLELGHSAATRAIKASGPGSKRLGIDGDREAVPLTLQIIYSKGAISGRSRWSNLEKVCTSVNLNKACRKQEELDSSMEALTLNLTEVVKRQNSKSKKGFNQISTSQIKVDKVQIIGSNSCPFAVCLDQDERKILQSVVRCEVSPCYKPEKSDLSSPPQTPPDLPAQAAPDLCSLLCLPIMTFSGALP

Consider `COC(=O)CCCCCCC(=O)N1CCOc2ccc(C=C3SC(=S)NC3=O)cc21` [Example 44, 8-Oxo-8-[6-(4-oxo-2-thioxo-thiazolidin-5-ylidenemethyl)-2,3-dihydro-1,4-benzoxazin-4-yl]-octanoic acid methyl ester], for which the IC50 amounted to 18 nM.

With `CC(C)C(C)C(=O)N1CCOc2ccc(C=C3SC(=S)NC3=O)cc21` (centres unmarked) [Example 86, 5-[4-(2,3-Dimethyl-butyryl)-3,4-dihydro-2H-benzo[1,4]oxazin-6-ethylene]-2-thioxo-thiazolidin-4-one], the half-inhibitory concentration (IC50) worked out at 179 nM.

As for `O=C1NC(=S)SC1=Cc1ccc2c(c1)N(C(=O)COc1ccc(Cl)cc1)CCCO2` [Example 109, 5-{9-[2-(4-Chloro-phenoxy)-acetyl]-6,7,8,9-tetrahydro-5-oxa-9-aza-benzocyclohepten-2-ylmethylene}-2-thioxo-thiazolidin-4-one], the IC50 amounted to 2030 nM.

As to “5-[9-(2-Benzyloxy-acetyl)-6,7,8,9-tetrahydro-5-oxa-9-aza-benzocyclohepten-2-ylmethylene]-2-thioxo-thiazolidin-4-one [Example 119]”, the IC50 worked out at 1650 nM.

`O=C1NC(=S)SC1=Cc1ccc2c(c1)N(C(=O)Nc1cccc(C(F)(F)F)c1)CCO2` [Example 55, 6-(4-Oxo-2-thioxo-thiazolidin-5-ylidenemethyl)-2,3-dihydro-1,4-benzoxazine-4-carboxylic acid (3-trifluoromethyl-phenyl)-amide]: the 50% inhibitory concentration (IC50) was found to be 5 nM.

For the molecule `O=C1NC(=S)SC1=Cc1ccc2c(c1)N(C(=O)CSc1ccccc1)CCO2` [Example 40, 5-[4-(2-Phenylsulfanyl-acetyl)-3,4-dihydro-2H-1,4-benzoxazin-6-ylmethylene]-2-thioxo-thiazolidin-4-one], the half-inhibitory concentration (IC50) is 12 nM.

Take `O=C1NC(=S)SC1=Cc1ccc2c(c1)N(C(=O)CCc1ccccc1)CCO2` [Example 70, 5-[4-(3-Phenyl-propionyl)-3,4-dihydro-2H-1,4-benzoxazin-6-ylmethylene]-2-thioxo-thiazolidin-4-one]: the half-maximal inhibitory concentration (IC50) was found to be 31 nM.

Turning to `O=C1NC(=S)SC1=Cc1ccc2c(c1)N(C(=O)c1ccc3nonc3c1)CCO2` [Example 61, 5-[4-(Benzofurazan-5-carbonyl)-3,4-dihydro-2H-1,4-benzoxazin-6-ylmethylene]-2-thioxo-thiazolidin-4-one], the IC50 amounted to 560 nM.

In the case of `O=C1NC(=S)SC1=Cc1ccc2c(c1)N(C(=O)COc1ccccc1)CCO2` [Example 38, 5-[4-(2-Phenoxy-acetyl)-3,4-dihydro-2H-1,4-benzoxazin-6-ylmethylene]-2-thioxo-thiazolidin-4-one], the IC50 came out at 25 nM.

Regarding `Cc1ccc(OC(=O)N2CCOc3ccc(C=C4SC(=S)NC4=O)cc32)cc1` [Example 18, 6-(4-Oxo-2-thioxo-thiazolidin-5-ylidenemethyl)-2,3-dihydro-1,4-benzoxazine-4-carboxylic acid p-tolyl ester], the IC50 amounted to 4 nM.

`O=C1NC(=S)SC1=Cc1ccc2c(c1)N(C(=O)NCCc1ccccc1)CCO2` [Example 65, 6-(4-Oxo-2-thioxo-thiazolidin-5-ylidenemethyl)-2,3-dihydro-1,4-benzoxazine-4-carboxylic acid phenethyl-amide]: the half-maximal inhibitory concentration (IC50) worked out at 17 nM.

Turning to “4-[2-(4-Oxo-2-thioxo-thiazolidin-5-ylidenemethyl)-7,8-dihydro-6H-5-oxa-9-aza-benzocycloheptene-9-carbonyl]-benzonitrile [Example 121]”, the IC50 was determined as 2610 nM.

On to `Cc1cccc(C(=O)N2CCOc3ccc(C=C4SC(=S)NC4=O)cc32)c1` [Example 23, 5-[4-(3-Methyl-benzoyl)-3,4-dihydro-2H-1,4-benzoxazin-6-ylmethylene]-2-thioxo-thiazolidin-4-one], for which the IC50 is 101 nM.

In the case of `O=C1NC(=S)SC1=Cc1ccc2c(c1)NCCCO2` [Example 103, 5-(6,7,8,9-Tetrahydro-5-oxa-9-aza-benzocyclohepten-2-ylmethylene)-2-thioxo-thiazolidin-4-one], the IC50 came to 445 nM.

On to `CN1CCN(Cc2ccc(C(=O)N3CCOc4ccc(C=C5SC(=S)NC5=O)cc43)cc2)CC1` [Example 74], for which the half-inhibitory concentration (IC50) was determined as 115 nM.

Turning to `O=C1NC(=S)SC1=Cc1ccc2c(c1)N(C(=O)Nc1ccc(Oc3ccccc3)cc1)CCCO2` [Example 118, 2-(4-Oxo-2-thioxo-thiazolidin-5-ylidenemethyl)-7,8-dihydro-6H-5-oxa-9-aza-benzocycloheptene-9-carboxylic acid (4-phenoxy-phenyl)-amide], the IC50 stood at 1870 nM.

As for `O=C1NC(=S)SC1=Cc1ccc2c(c1)N(C(=O)Nc1cccc(Cl)c1)CCO2` [Example 80, 6-(4-Oxo-2-thioxo-thiazolidin-5-ylidenemethyl)-2,3-dihydro-benzo[1,4]oxazine-4-carboxylic acid (3-chloro-phenyl)-amide], the IC50 was found to be 2 nM.

Take `CC(C)(C)c1cc(C(=O)N2CCOc3ccc(C=C4SC(=S)NC4=O)cc32)cc(C(C)(C)C)c1` [Example 81, 5-[4-(3,5-Di-tert-butyl-benzoyl)-3,4-dihydro-2H-benzo[1,4]oxazin-6-ethylene]-2-thioxo-thiazolidin-4-one]: the 50% inhibitory concentration (IC50) is 3760 nM.

Take `O=C1NC(=S)SC1=Cc1ccc2c(c1)N(C(=O)C1CCCCCC1)CCO2` [Example 83, 5-[4-Cycloheptanecarbonyl-3,4-dihydro-2H-benzo[1,4]oxazin-6-ethylene]-2-thioxo-thiazolidin-4-one]: the concentration for half-maximal inhibition (IC50) was 27 nM.

Take “2-(4-Oxo-2-thioxo-thiazolidin-5-ylidenemethyl)-7,8-dihydro-6H-5-oxa-9-aza-benzocycloheptene-9-carboxylic acid phenyl ester [Example 105]”: the IC50 is 424 nM.

With `O=C1NC(=S)SC1=Cc1ccc2c(c1)N(C(=O)C1CCCC1)CCO2` [Example 33, 5-(4-Cyclopentanecarbonyl-3,4-dihydro-2H-1,4-benzoxazin-6-ylmethylene)-2-thioxo-thiazolidin-4-one], the half-maximal inhibitory concentration (IC50) is 14 nM.

For `O=C1NC(=S)SC1=Cc1ccc2c(c1)NCCO2` [Example 10, 5-(3,4-dihydro-2H-benzo[1,4]oxazine-6-ylmethylene)-2-thioxo-thiazolidin-4-one], the IC50 came to 160 nM.

With `CC(C)(C)c1cc(CN2CCOc3ccc(C=C4SC(=S)NC4=O)cc32)cc(C(C)(C)C)c1` [Example 5, 5[4-(3,5-Di-tert-butyl-benzyl)-3,4-dihydro-2H-benzo[1,4]oxazine-6-ylmethylene]-2-thioxo-thiazolidin-4-one], the 50% inhibitory concentration (IC50) was 1870 nM.

Take `CC(C)C(=O)N1CCOc2ccc(C=C3SC(=S)NC3=O)cc21` [Example 31, 5-(4-Isobutyryl-3,4-dihydro-2H-1,4-benzoxazin-6-ylmethylene)-2-thioxo-thiazolidin-4-one]: the half-maximal inhibitory concentration (IC50) was 9 nM.

On to “5-[4-(Furan-2-carbonyl)-3,4-dihydro-2H-1,4-benzoxazin-6-ylmethylene]-2-thioxo-thiazolidin-4-one [Example 41]”, for which the half-inhibitory concentration (IC50) was 65 nM.

On to `O=C1NC(=S)SC1=Cc1ccc2c(c1)N(C(=O)Cc1cccs1)CCO2` [Example 35, 5-[4-(2-Thiophen-2-yl-acetyl)-3,4-dihydro-2H-1,4-benzoxazin-6-ylmethylene]-2-thioxo-thiazolidin-4-one], for which the half-inhibitory concentration (IC50) is 36 nM.

The values above are taken from patent US20040138199A1, “Benzoxazines and derivatives thereof as therapeutic agents” (priority 2002, published 2004).
